Tests used:
[1] = system: DAS5G11E7 monoclonal antibody; format: binding, mouse
rat = details: in vivo; cited from earlier work

CC(=O)OC[C@]12CCC(C)=C[C@H]1O[C@@H]1[C@H](O)[C@@H](OC(C)=O)[C@@]2(C)[C@]12CO2 [DAS, diacetoxyscirpenol]
Cross reactivity [1]: 100%
LDS (rat): 0.75 mg/kg

— patent US12687539B2 (priority 2019, dated 2026)
